Measurements as given in patent publication US8652444B2, “Oral compositions containing biphenol antibacterial compounds” (Colgate-Palmolive Company, priority 2004, dated 2014).
Converted amounts (≈) assume the structure as drawn.

Key:
Assay type in all cases: cell-based
A. actino. = experiment: MIC50 against bacteria; details: unit assumed
Method: (§1) MIC50 values against a variety of bacteria are measured for the dipropyl and dibutyl derivatives and compared to those for triclosan.

S. gordonii = experiment: MIC50 against bacteria; details: unit assumed
Method: as §1

S. aureus = experiment: MIC50 against bacteria; details: unit assumed
Method: as §1

F. nucleatum = experiment: MIC50 against bacteria; details: unit assumed
Method: as §1

S. mutans = experiment: MIC50 against bacteria; details: unit assumed
Method: as §1

B. cereus = experiment: MIC50 against bacteria; details: unit assumed
Method: as §1

B. subtilis = experiment: MIC50 against bacteria; details: unit assumed
Method: as §1

P. gingivalis = experiment: MIC50 against bacteria; details: unit assumed
Method: as §1

P. nigresc. = experiment: MIC50 against bacteria; details: unit assumed
Method: as §1

P. intermedia = experiment: MIC50 against bacteria; details: unit assumed
Method: as §1

E. corrodens = experiment: MIC50 against bacteria; details: unit assumed
Method: as §1

M. catarrhalis = experiment: MIC50 against bacteria; details: unit assumed
Method: as §1

[1] = system: staphylococcus, streptococcus, and bacillus bacteria; experiment: MIC50 against a variety of bacteria, comparison; details: against a number of staphylococcus, streptococcus, and bacillus bacteria of Table I; comparable to triclosan
Method: as §1

certain oral bacteria = experiment: MIC50 against certain oral bacteria, comparison
Method: as §1

Compound | MIC50 (A. actino.) | MIC50 (S. gordonii) | MIC50 (S. aureus) | MIC50 (F. nucleatum) | MIC50 (S. mutans) | MIC50 (B. cereus) | MIC50 (B. subtilis) | MIC50 (P. gingivalis) | MIC50 (P. nigresc.) | MIC50 (P. intermedia) | MIC50 (E. corrodens) | MIC50 (M. catarrhalis) | MIC50 relative to the dipropyl derivative [1] | MIC50 relative to an analogous compound containing propyl groups (certain oral bacteria)
CCCCc1ccc(O)c(-c2cc(CCCC)ccc2O)c1 [dibutyl derivative, 5,5′-dibutyl-2,2′-dihydroxy-1,1′-biphenyl] | > 500 µg/mL | 31.3 µg/mL (≈ 105 µM) | 7.8 µg/mL (≈ 26.1 µM) | > 500 µg/mL | 3.9 µg/mL (≈ 13.1 µM) | 31.3 µg/mL (≈ 105 µM) | 7.8 µg/mL (≈ 26.1 µM) | 2 µg/mL (≈ 6.7 µM) | 3.9 µg/mL (≈ 13.1 µM) | 2 µg/mL (≈ 6.7 µM) | 0.5 µg/mL (≈ 1.68 µM) | 15.6 µg/mL (≈ 52.3 µM) | over an order of magnitude less than that of the dipropyl derivative | lower
Oc1cc(Cl)ccc1Oc1ccc(Cl)cc1Cl [triclosan] | 0.125 µg/mL (≈ 0.432 µM) | 7.8 µg/mL (≈ 26.9 µM) | 2 µg/mL (≈ 6.91 µM) | 1 µg/mL (≈ 3.45 µM) | 7.8 µg/mL (≈ 26.9 µM) | 15.6 µg/mL (≈ 53.9 µM) | 2 µg/mL (≈ 6.91 µM) | 0.5 µg/mL (≈ 1.73 µM) | 3.9 µg/mL (≈ 13.5 µM) | 1 µg/mL (≈ 3.45 µM) | < 0.001 µg/mL | < 0.001 µg/mL | – | –
CCCc1ccc(O)c(-c2cc(CCC)ccc2O)c1 [dipropyl derivative, 5,5′-propyl-2,2′-dihydroxy-1,1′-biphenyl] | > 500 µg/mL | > 500 µg/mL | > 500 µg/mL | > 500 µg/mL | > 500 µg/mL | > 500 µg/mL | > 500 µg/mL | 3.9 µg/mL (≈ 14.4 µM) | 7.8 µg/mL (≈ 28.8 µM) | 2 µg/mL (≈ 7.4 µM) | 1 µg/mL (≈ 3.7 µM) | 7.8 µg/mL (≈ 28.8 µM) | – | –
